Source: patent EP2605769B1, “BENZOQUINONE DERIVATIVES FOR THE TREATMENT OF MITCHONDRIAL EYE DISEASES” (Santhera Pharmaceuticals (Schweiz) AG, priority 2010, dated 2012)
Read-outs that look alike come from different tables or passages of the source.

Key:
[1] = test system: C57BL/6J mice; test: Optomotor testing of visual acuity in the rotenone mouse model; format: in vivo; details: for Number of counterclockwise head movements/ 2 min / Number of clockwise head movements/ 2 min: 5 weeks after injection, ± SEM; for Number of counterclockwise head movements/ 2 min: non-injected eye; for Number of clockwise head movements/ 2 min: rotenone-injected eye; for Number of head movements: 2000 mg/kg in diet, mean ± SEM
Description: Since RGC loss is associated with visual acuity impairment, we tested whether the neuroprotective effect of the test compound IA also correlated with recovery of visual function. For this purpose, visual acuity was detected by quantifying the optomotor response of animals subjected to the test system described above. The optomotor response was measured as previously described (see […]., et al. Vis. Res., 2005). Mice were placed on a central platform surrounded by a motorized drum with black and white vertical stripes that can rotate in both, clockwise and counterclockwise, direction at different velocities (which can be adjusted to evoke the optimal optokinetic response), and under constant light levels. Mice were allowed to habituate for 5 min to the experimental conditions before stripes were rotated alternately clockwise and counterclockwise, for 2 min in each direction and with an interval of 30 s between the two rotations. The mice were recorded on a computer using a digital video camera mounted above the apparatus to subsequently score the number of head movements by manual counting. Head movements were scored only when the angular speed of the head turn corresponds to that of the drum rotation. After aquisition and encoding by an investigator, a second, blinded investigator conducted all assessments. Codes were broken upon completion of data acquisition by a third investigator. Each mouse was tested at different time points and the apparatus will be cleaned between mice. Data will be presented as mean ± SEM. Paired Student's t-test and analysis of variance (ANOVA) will be used to compare non-normalized data. Statistical significance will be set at p≤0.05(*), p≤0.01(**) and p≤0.001 (***). Table 7: Effect of idebenone pre-treatment on visual acuity in an in vivo mouse model for LHON. Quantification of mouse visual acuity based on the optomotor response in mice pre-treated for 3 weeks with vehicle and idebenone 2000 mg/kg in diet. […] The optomotor response was examined in both clockwise (a) and counterclockwise (b) directions of motion, clockwise and counterclockwise tracking head movements reflecting visual acuity of the rotenone-injected (left) and non-injected (right) eye, respectively.

[2] = Pharmacokinetic analysis in plasma and eye fluids after oral administration; format: in vivo, mice; details: for Kp: single oral 400 mg/kg; for AUC(0-t): read-out: AUC0-6h
Description: Pharmacokinetic analysis of test compounds after oral administration aims to determine its bioavailability and clearance in the plasma and in the eye fluids (aqueous and vitreous humor). The test compounds are quantified in the plasma and in the aqueous and vitreous humor after acute and repeated treatment (with different routes of administration). The time-dependent concentration is then determined and pharmacokinetic parameters (Cmax, AUC0-t, tmax) are calculated.
Experimental procedure: Male wild-type C57BL/6J mice (7 weeks old, about 25 g body weight) are individually housed in Makrolon type II cages with standard bedding and free access to food and water under a regular 12-hours light-dark cycle (8 a.m. to 8 p.m.). Mice receive single or daily repeated oral doses of the test compounds (ranging from 20 to 2000 mg/kg of body weight) or the vehicle administered though the diet or by gavage at the end of the light phase. The treatment can be followed by a washout period. Samples for pharmacokinetic analysis are taken at different time intervals following compound administration. Mice are anesthetized by 5% isofluran inhalation in an induction chamber and sacrificed by cervical dislocation. Blood is collected from the head cut for plasma extraction. Eye balls are dissected out to collect aqueous and vitreous humor. Samples are snap frozen in liquid nitrogen and stored (-80°C) until analyzed by LC-MS/MS and accordingly to standardized procedures. All mouse procedures are performed in accordance with the Swiss regulation and under a license approved by the "Kantonales Veterinäramt Basel-Land".
The pharmacokinetic profile of idebenone (compound IA) was assessed, following a single oral gavage dose to male mice. […] Furthermore, the ratio (vitreous humor /plasma and aqueous humor/plasma) appeared to be independent of the time post dose, consistent with a lack of accumulation of idebenone in the eye. The overall extent of exposure to idebenone in the vitreous humor, as measured by AUC0-6h, represented about 2 % of that observed in plasma (vitreous/plasma ratio; Table 8). Similarly, the extent of exposure to idebenone in the aqueous humor represented about 3 % of that observed in plasma (aqueous/plasma ratio; Table 8).

[3] = C57BL/6J, mouse, Aqueous Humor, single oral administration at 400 mg/kg, male mice
[4] = C57BL/6J, mouse, Plasma, single oral administration at 400 mg/kg, male mice
[5] = C57BL/6J, mouse, Vitreous Humor, single oral administration at 400 mg/kg, male mice

COC1=C(OC)C(=O)C(CCCCCCCCCCO)=C(C)C1=O [Compound IA, Idebenone]
Number of counterclockwise head movements/ 2 min ([1]; 2000 mg/kg + rotenone 1 mM): 12.5 ± 4.5 head movements/2 min | Number of clockwise head movements/ 2 min ([1]; 2000 mg/kg + rotenone 1 mM): 9 ± 2 head movements/2 min | Number of counterclockwise head movements/ 2 min ([1]; 2000 mg/kg + rotenone 5 mM): 10.5 ± 0.6 head movements/2 min | Number of clockwise head movements/ 2 min ([1]; 2000 mg/kg + rotenone 5 mM): 3.5 ± 1.5 head movements/2 min | Number of head movements ([1]; time post-injection 1 day): 0 ± 0 (n=7) head movements/2 min | Number of head movements ([1]; time post-injection 7 days): 0.5 ± 0.5 (n=7) head movements/2 min | Number of head movements ([1]; time post-injection 14 days): 1.8 ± 0.8 (n=7) head movements/2 min | Number of head movements ([1]; time post-injection 21 days): 2.8 ± 1.4 (n=7) head movements/2 min | Number of head movements ([1]; time post-injection 28 days): 2.8 ± 1.4 (n=7) head movements/2 min | Number of head movements ([1]; time post-injection 35 days): 3.5 ± 1.5 (n=7) head movements/2 min | Number of head movements ([1]; time post-injection 56 days): 6 ± 2.1 (n=4) head movements/2 min | Number of head movements ([1]; time post-injection -7 days): 9.7 ± 0.7 (n=7) head movements/2 min | Kp ([2]; C57BL/6J, mouse, aqueous humor / plasma, male mice, read-out: extent of exposure in the aqueous humor relative to plasma): ~0.03 | Kp ([2]; C57BL/6J, mouse, vitreous humor / plasma, male mice, read-out: extent of exposure in the vitreous humor (AUC0-6h) relative to plasma): ~0.02 | Cmax [2, 3]: 86.2 ng/mL | Tmax [2, 3]: 15 min | AUC(0-t) [2, 3]: 62.6 ng·h/mL | AUC(0-inf) [2, 4]: 1960 ng·h/mL | Cmax [2, 4]: 1070 ng/mL | Tmax [2, 4]: 15 min | half-life [2, 4]: 102 min | AUC(0-t) [2, 4]: 1860 ng·h/mL | Cmax [2, 5]: 37.9 ng/mL | Tmax [2, 5]: 15 min | AUC(0-t) [2, 5]: 38.1 ng·h/mL | λz ([2]; Plasma, single oral administration at 400 mg/kg, male mice): 0.409 h⁻¹ | time of maximum in vitreous and aqueous humors (up-take into the eye) ([2]; oral dietary or gavage administration, mouse, post-dose): < 15 min | time of maximum concentration in plasma, vitreous and aqueous humors ([2]; single oral dose of 400 mg/kg, first sampling time post-dose): 15 min
